According to patent US10889579B2, “Thiazine derivatives as β-secretase inhibitors and methods of use” (AMGEN INC., priority 2016, dated 2021):
Blank lines part the entries; values can stand above or below the compound they belong to.

Key:
Recombinant CatD = Recombinant CatD (Homo sapiens (Human), UniProt P07339); assay: In vitro enzymatic Cathepsin D (CatD) FRET assay; assay type: biochemical; details: pH 3.5, 1 h pre-incubation, read-out: Cat D Enzyme IC50
Protocol: In Vitro Enzymatic Cathepsin D (CatD) FRET Assay Recombinant CatD was expressed in CHO cells. The assay buffer for CatD was 0.05 M citrate pH 3.5, 10% DMSO final, 5 mM CHAPS. The CatD enzyme (9 nM) was pre-incubated for one hour with inhibitors, typically in about luL of DMSO according to a serial dilution, is added thereto. The assays was effectively started by the addition of different FRET substrates (20 nM for CatD) and the combination was incubated for one hour. The FRET assay was terminated with by addition of tris buffer, which raises the pH to neutrality, and the fluorescence was determined. The FRET substrate was a peptide with commercially available fluorophore and quencher, on opposite sides of the CatD cleavage site. The CatD substrate peptide sequence was based on sequence #1 of Table 1 from Gulnik et al., FEBS Lett. 413(2):379-384 (1997). Proteolytic cleavage of the FRET substrate released quenching of fluorescence (CatD excitation 500 nm and emission 580 nm). The in vitro CatD FRET assay data for each of the Examples is provided in Table 2, conducted by the first procedure described above. […] Thus, with this surprising selectivity profile, the compounds provided herein are believed to minimize, reduce or completely eliminate any risk of retinal atrophy and abnormal development of the eye and of the retinal pigmented epithelium as it relates to the normal function and activity of CatD.

BACE1 [1] = molecular target: T1, BACE1 (Homo sapiens (Human), UniProt P56817); assay: In vitro enzymatic BACE1 FRET assay; assay type: biochemical; details: pH 4.5, 1 h pre-incubation, read-out: BACE1 Enzyme IC50
Protocol: (§1) In Vitro Enzymatic BACE1 and BACE2 FRET (Fluorescence Resonance Energy Transfer) Assays
(§2) The cDNAs for both human recombinant BACE1 and 2 with C-terminal 6-His Tags were cloned into transient protein expression vectors, which were subsequently transfected into mammalian cell lines. These recombinant proteins were further purified using Ni-NTA affinity chromatography (Qiagen). The assay buffer used in these screens was 0.05 M acetate, pH 4.5, 8% DMSO final, 100 μM genapol (which is a nonionic detergent, below its Critical Micelle Concentration). The β-secretase enzyme (0.02 nM for BACE1 and 0.64 nM for BACE2), which was pre-incubated for one hour with the test compound, typically in about luL of DMSO according to a serial dilution, was added thereto. The assay was effectively started by the addition of FRET substrate (50 nM) and the combination was incubated for one hour. The FRET assay was terminated by the addition of tris buffer, which raised the pH to neutrality, and the fluorescence was determined. The FRET substrate was a peptide with commercially available fluorophore and quencher, on opposite sides of the BACE cleavage site. The specific FRET substrate used in this assay was made by Amgen in-house. Commercially available FRET substrates, for example, the FRET substrate offered with the BACE1 FRET Assay Kit sold by ThermoFisher Scientific (Catalog Number P2985), may be used in this assay with the appropriate modifications, which are within the purview of the ability of a person with ordinary skill in the art. Proteolytic cleavage of the FRET substrate released quenching of fluorescence (excitation 488 nm and emission 590 nm).
Target sequence in this assay (P56817 46-501): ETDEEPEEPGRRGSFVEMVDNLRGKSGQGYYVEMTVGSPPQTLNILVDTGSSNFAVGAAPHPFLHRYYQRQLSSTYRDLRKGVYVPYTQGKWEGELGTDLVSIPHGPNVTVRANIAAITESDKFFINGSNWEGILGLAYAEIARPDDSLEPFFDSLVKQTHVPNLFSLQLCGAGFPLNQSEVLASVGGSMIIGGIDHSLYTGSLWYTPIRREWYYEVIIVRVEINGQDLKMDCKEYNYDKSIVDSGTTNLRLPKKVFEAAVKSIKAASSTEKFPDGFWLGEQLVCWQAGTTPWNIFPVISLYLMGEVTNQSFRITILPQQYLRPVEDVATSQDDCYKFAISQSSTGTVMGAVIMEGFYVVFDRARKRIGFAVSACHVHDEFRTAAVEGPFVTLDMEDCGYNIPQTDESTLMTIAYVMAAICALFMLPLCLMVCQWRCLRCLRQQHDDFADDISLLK

human recombinant BACE2 = human recombinant BACE2 (Homo sapiens (Human), UniProt Q9Y5Z0); assay: In vitro enzymatic BACE2 FRET assay; assay type: biochemical; details: pH 4.5, 1 h pre-incubation, read-out: BACE2 Enzyme IC50
Sequence of human recombinant BACE2 (Q9Y5Z0 63-518): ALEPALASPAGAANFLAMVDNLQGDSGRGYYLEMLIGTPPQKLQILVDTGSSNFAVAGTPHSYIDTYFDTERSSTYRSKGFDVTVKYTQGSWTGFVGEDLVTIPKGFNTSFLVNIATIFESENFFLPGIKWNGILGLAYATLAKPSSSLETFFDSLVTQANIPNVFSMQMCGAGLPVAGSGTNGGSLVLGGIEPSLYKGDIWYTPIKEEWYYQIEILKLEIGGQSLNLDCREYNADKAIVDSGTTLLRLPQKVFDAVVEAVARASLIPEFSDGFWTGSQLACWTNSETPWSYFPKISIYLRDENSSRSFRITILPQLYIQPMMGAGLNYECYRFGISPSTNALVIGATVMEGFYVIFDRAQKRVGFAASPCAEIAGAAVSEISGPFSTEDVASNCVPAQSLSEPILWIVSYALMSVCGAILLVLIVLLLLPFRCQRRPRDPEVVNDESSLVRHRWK
Protocol: as §1, §2

BACE1 [2] = molecular target: T1, BACE1; assay: In vitro BACE1 cell-based assay (Aβ40 in conditioned medium, HTRF); details: Aβ40 in conditioned medium of cells stably expressing APP, 24 h
Protocol: In Vitro BACE1 Cell-Based Assay
The cell-based assay measures inhibition or reduction of Aβ40 in conditioned medium of test compound treated cells expressing amyloid precursor protein. Cells stably expressing Amyloid Precursor Protein (APP) were plated at a density of 45K cells/well in 384 well plates (Corning/BioCoat 354663). The test compounds were then added to cells in 22-point dose response concentrations with the starting concentration being 62.5 μM. The compounds were diluted from stock solutions in DMSO and the final DMSO concentration of the test compounds on cells was 0.625%. The cells were cultivated overnight at 37° C. and 5% CO2 in DMEM supplemented with 10% FBS. After 24 h of incubation with the test compounds, the conditioned media was collected and the Aβ40 levels were determined using HTRF (Homogeneous Time Resolved Fluorescence). The IC50 of the compound was calculated from the percent of control or percent inhibition of Aβ 40 as a function of the concentration of the test compound.
The HTRF to detect Aβ40 was performed in 384 well plates (Costar 3658). The antibody pair that were used to detect Aβ 40 from cell supernatants were ConfAb40 antibody (Amgen in-house) and biotinylated 6E10 (BIOLEGEND). As an alternative to ConfAb40, a commercially available antibody, Anti-beta Amyloid 1-40 antibody [BDI350] from Abcam, Cambridge, Mass. 02139-1517 (Product code: ab20068), may be used in this assay. The concentrations were 0.35 μg/mL of ConfAb40 antibody and 1.33 μg/mL of 6E10-biotinylated antibody, as well as 4.5 μg/mL of Streptavidin Allophycocyanin Conjugate (ThermoFisher Scientific) in HTRF Buffer (1M Hepes pH 7.5, 1M NaCL, 1% BSA, 0.5% Tween 20).
The conditioned media was incubated with above antibodies and Streptavidin Allophycocyanin Conjugate for 30-60 minutes at 23° C. The final readout was performed on Envision from PerkinElmer.
Target sequence in this assay (P56817 46-501, species assumed): as the sequence (P56817 46-501) above

[3] = repeated doses up to 200 mg, phase I clinical trial; cited from earlier work
[4] = tested on: Aβ peptide levels in the CSF and plasma; details: nonhuman primates; cited from earlier work
Aβ peptide in CSF = details: cited from earlier work
[5] = in vivo; cited from earlier work
[6] = tested on: pigment epithelium of the rat's eye; details: higher compound dose given for three months; cited from earlier work
[7] = tested on: CSF Aβ peptide concentrations; details: sustained and dose-dependent manner; cited from earlier work
[8] = phase I clinical trials; cited from earlier work

Sequence of Recombinant CatD (P07339 65-412): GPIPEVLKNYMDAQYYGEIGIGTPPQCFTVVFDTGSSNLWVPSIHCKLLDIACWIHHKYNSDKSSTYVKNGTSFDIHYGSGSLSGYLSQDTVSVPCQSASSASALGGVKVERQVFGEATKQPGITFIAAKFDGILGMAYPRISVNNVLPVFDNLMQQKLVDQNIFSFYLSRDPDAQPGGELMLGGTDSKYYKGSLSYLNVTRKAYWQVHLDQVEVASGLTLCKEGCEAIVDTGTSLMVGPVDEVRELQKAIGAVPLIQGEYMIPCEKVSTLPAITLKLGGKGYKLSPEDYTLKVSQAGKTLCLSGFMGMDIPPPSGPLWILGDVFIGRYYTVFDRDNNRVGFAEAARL

- IC50 (Recombinant CatD): 68600 nM
- IC50 (BACE1 [1]): 25 nM
- IC50 (human recombinant BACE2): 560 nM
- IC50 (BACE1 [2]): 10 nM
SMILES: CNC(=O)[C@]1(C)C[C@@](C)(c2cc(/C=C(\F)c3ccc(C#N)cn3)ccc2F)N=C(N)S1 [Example 116, (4S,6S)-2-amino-4-(5-((Z)-2-(5-cyanopyridin-2-yl)-2-fluorovinyl)-2-fluorophenyl)-N,4,6-trimethyl-5,6-dihydro-4H-1,3-thiazine-6-carboxamide]

SMILES: C[C@H]1OC[C@]2(c3cc(NC(=O)c4cnc(C(F)F)cn4)ccc3F)N=C(N)SC[C@H]12 [Example E2609]
- clinical safety [3]: did not show clinical significant safety concerns
- reduction in Aβ peptide levels in the CSF and plasma [4]: significant reduction

SMILES: C[C@@]1(c2cc(NC(=O)c3ccc(C#N)cn3)ccc2F)C=CSC(N)=N1 [JNJ-54861911]
- reduction of Aβ peptide concentrations (Aβ peptide in CSF; in vivo): dose-dependently reduce Aβ peptide concentrations
- Aβ peptide reduction in CSF (Aβ peptide in CSF; oral dose of 95 mg once daily): up to 95%
- ability to cross the blood-brain barrier [5]: demonstrated an ability to cross the blood-brain barrier

SMILES: C[C@@]1(c2cc(-c3cncnc3)c(F)cc2F)CCSC(N)=N1 [LY 2811376]
- eye toxicity finding [6]: damaged the pigment epithelium of the rat's eye

SMILES: CN1C(=N)N[C@](C)(c2cc(NC(=O)c3ccc(F)cn3)ccc2F)CS1(=O)=O [MK-8931]
- CSF Aβ peptide concentrations [7]: significantly reduced
- safety profile [8]: excellent safety profile with no immediately noticeable side effects
